Results from patent publication US11124498B2, “Compositions and methods for modulating protease activity” (THE REGENTS OF THE UNIVERSITY OF CALIFORNIA, priority 2016, dated 2021).
Residues, ends and D or L forms follow the SMILES beside them. *: point of attachment. Octanoyl = CCCCCCCC(=O)*

Columns and labels:
cathepsin S = target: T1, cathepsin S (Homo sapiens, UniProt P25774); experiment: in vitro protease inhibition assay, cathepsin S; format: biochemical; conditions: z-FR-AMC substrate, MES buffer pH 5.5, read-out: activity against cathepsin S
T1 construct: purchased R&D Systems
T1 sequence (P25774 115-331): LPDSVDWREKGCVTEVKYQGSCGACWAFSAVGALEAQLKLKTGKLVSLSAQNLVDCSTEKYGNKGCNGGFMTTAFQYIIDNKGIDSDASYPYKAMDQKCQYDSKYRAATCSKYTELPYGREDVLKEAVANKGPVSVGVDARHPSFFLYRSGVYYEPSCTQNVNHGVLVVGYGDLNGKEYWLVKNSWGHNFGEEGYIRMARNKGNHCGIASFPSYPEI
Procedure: (§1) Protease Inhibition Assays. Detailed information about synthesis of N-Boc-protected peptidyl aldehydes and their deprotection for protease inhibition activity tests are available in the Extended Experimental Procedures. For protease inhibition assays, all fluorescence measurements were made on a Biotek H4 instrument. Buffering reagents were purchased from Sigma-Aldrich and sterile-filtered prior to use. Compounds and substrates were diluted from DMSO stocks into water/DMSO such that final DMSO plate concentrations were below 5% during the reaction. All reactions were started by the addition of substrate to the enzyme/compound solutions (see also Extended Experimental Procedures).
Detailed procedures for protease inhibition assays. Enzymes: cathepsin L, cathepsin B, cathepsin C and cathepsin S were purchased from R&D Systems trypsin, chymotrypsin and calpain I were purchased from Sigma-Aldrich. Calpain I was also purchased from Abcam. Human 20s proteasome was purchased from Boston Biochem.
Substrates: z-FR-AMC, Boc-IEGR-AMC, Suc-ALPF-AMC and GR-AMC were purchased from Bachem. Suc-LLVY-AMC was purchased from Anaspec. Substrates were used without further purification.
Inhibitors: Carfilzomib was a generous gift from Onyx Pharmaceuticals and was used as a positive control in the proteasome inhibition assay. […]

cathepsin L = target: T2, cathepsin L (Homo sapiens, UniProt P07711); experiment: in vitro protease inhibition assay, cathepsin L; format: biochemical; conditions: z-FR-AMC substrate, MES buffer pH 5.5
T2 construct: purchased R&D Systems
T2 sequence (P07711 114-333): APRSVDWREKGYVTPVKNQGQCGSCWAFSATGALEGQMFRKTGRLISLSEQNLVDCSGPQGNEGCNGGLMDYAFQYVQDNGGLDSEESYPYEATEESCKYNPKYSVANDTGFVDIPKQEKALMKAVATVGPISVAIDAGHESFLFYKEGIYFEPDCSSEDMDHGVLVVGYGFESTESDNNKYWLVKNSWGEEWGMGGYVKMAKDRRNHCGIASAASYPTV
Procedure: as §1
Deprotection of Boc-protected dipeptide aldehyde compounds. All the deprotection experiments were performed in an anaerobic chamber. Trifluoroacetic acid (TFA) was added to the purified Boc-protected dipeptidyl aldehydes. 1 μL of the reaction was added to 100 μL 80% DMSO in ddH2O and a 0.5 μL portion of the solution was examined by an Agilent 6530 qTOF LC/MS. For preparing dipeptide aldehyde solution for protease inhibition assays, the deprotection reaction was left at 30° C. for 15 mins. Then ddH2O was added to quench the reaction and give a 2.5 mM peptidyl aldehydes in 1% TFA solution. Some side products like isobutylene and their corresponding imine and pyrazinone products have poor water solubility. […]

cathepsin S (CTSS) = target: T3, cathepsin S (CTSS) (Homo sapiens, UniProt P25774); experiment: competitive isoTOP-ABPP, blockade of IA-alkyne labeling, cathepsin S; format: binding
T3 construct: We treated membrane preparations of the human innate immune (monocytic) cell line THP-1 with the bgc35 product Phe-Phe-H; endogenous in cells; host or cells: THP-1 membrane fraction
T3 sequence (P25774 115-331): as the sequence (P25774 115-331) above
Excerpt: (§2) The proteases we assayed were chosen based on literature precedent. To determine the target of the peptide aldehydes in an unbiased way, we applied a quantitative chemical proteomic method, termed isoTOP-ABPP (Weerapana et al. 2010, Backus et al., 2016) to measure the global interactions of a representative dipeptide aldehyde, bgc35 product Phe-Phe-H, with cysteine residues in the human cell lysates. We treated membrane preparations of the human innate immune (monocytic) cell line THP-1 with the bgc35 product Phe-Phe-H or vehicle, and then these samples were treated with a cysteine reactive iodoacetamide-alkyne (IA-alkyne) probe and conjugated to an isotopically differentiated (heavy or light, respectively) TEV protease-cleavable biotin tag using copper-catalyzed azide-alkyne cycloaddition (CuAAC or click) chemistry. Vehicle- and peptide-treated samples were then combined, enriched, subjected to sequential trypsin and TEV digests and evaluated by LC-MS/MS. Site-specific blockade of IA-alkyne labeling as measured by quantitation of heavy/light MS1 chromatographic peaks designates cysteine residues that are targeted by Phe-Phe-H (heavy/light ratios, or R values>5; line, FIG. 3D). […]

cathepsin H (CTSH) = target: T4, cathepsin H (CTSH) (Homo sapiens, UniProt P09668); experiment: competitive isoTOP-ABPP, blockade of IA-alkyne labeling, cathepsin H; format: binding; conditions: THP-1 membranes, 250 nM Phe-Phe-H
T4 construct: We treated membrane preparations of the human innate immune (monocytic) cell line THP-1 with the bgc35 product Phe-Phe-H; endogenous in cells; host or cells: THP-1 membrane fraction
T4 sequence (P09668 98-335): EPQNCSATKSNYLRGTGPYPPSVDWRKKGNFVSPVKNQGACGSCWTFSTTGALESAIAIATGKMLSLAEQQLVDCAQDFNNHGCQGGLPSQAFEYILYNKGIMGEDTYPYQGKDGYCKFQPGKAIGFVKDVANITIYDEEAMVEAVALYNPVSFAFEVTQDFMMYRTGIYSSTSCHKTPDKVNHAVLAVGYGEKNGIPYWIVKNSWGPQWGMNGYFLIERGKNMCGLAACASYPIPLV
Excerpt: as §2

cathepsin L (CTSL1) = target: T5, cathepsin L (CTSL1) (Homo sapiens, UniProt P07711); experiment: competitive isoTOP-ABPP, blockade of IA-alkyne labeling, cathepsin L; format: binding; conditions: THP-1 membranes, 250 nM Phe-Phe-H
T5 construct: We treated membrane preparations of the human innate immune (monocytic) cell line THP-1 with the bgc35 product Phe-Phe-H; endogenous in cells; host or cells: THP-1 membrane fraction
T5 sequence (P07711 114-333): as the sequence (P07711 114-333) above
Excerpt: as §2

cathepsin Z (CTSZ) = target: T6, cathepsin Z (CTSZ) (Homo sapiens, UniProt Q9UBR2); experiment: competitive isoTOP-ABPP, blockade of IA-alkyne labeling, cathepsin Z; format: binding
T6 construct: We treated membrane preparations of the human innate immune (monocytic) cell line THP-1 with the bgc35 product Phe-Phe-H; endogenous in cells; host or cells: THP-1 membrane fraction
T6 sequence (Q9UBR2 62-303): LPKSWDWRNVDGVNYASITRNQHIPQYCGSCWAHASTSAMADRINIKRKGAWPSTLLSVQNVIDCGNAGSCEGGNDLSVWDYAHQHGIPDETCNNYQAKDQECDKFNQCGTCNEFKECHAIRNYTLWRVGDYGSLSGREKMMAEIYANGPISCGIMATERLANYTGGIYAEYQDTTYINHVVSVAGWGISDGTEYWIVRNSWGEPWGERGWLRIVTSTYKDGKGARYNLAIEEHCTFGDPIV
Excerpt: as §2

cathepsin B (CTSB) = target: T7, cathepsin B (CTSB) (Homo sapiens, UniProt P07858); experiment: competitive isoTOP-ABPP, blockade of IA-alkyne labeling, cathepsin B; format: binding; conditions: THP-1 membranes, 250 nM Phe-Phe-H
T7 construct: We treated membrane preparations of the human innate immune (monocytic) cell line THP-1 with the bgc35 product Phe-Phe-H; endogenous in cells; host or cells: THP-1 membrane fraction
Excerpt: as §2

[1] = system: more than 3500 total quantified cysteines across three different human cell proteomes; experiment: competitive isoTOP-ABPP, proteome-wide selectivity over non-cathepsin cysteines; format: binding; conditions: more than 3500 quantified cysteines, no additional targets
Excerpt: as §2

cathepsin C (CTSC) = target: T8, cathepsin C (CTSC) (Homo sapiens, UniProt P53634); experiment: competitive isoTOP-ABPP, blockade of IA-alkyne labeling, cathepsin C; format: binding
T8 construct: endogenously expressed CTSC is post-translationally regulated; endogenous in cells; host or cells: THP-1 membrane fraction
T8 sequence (P53634 25-463): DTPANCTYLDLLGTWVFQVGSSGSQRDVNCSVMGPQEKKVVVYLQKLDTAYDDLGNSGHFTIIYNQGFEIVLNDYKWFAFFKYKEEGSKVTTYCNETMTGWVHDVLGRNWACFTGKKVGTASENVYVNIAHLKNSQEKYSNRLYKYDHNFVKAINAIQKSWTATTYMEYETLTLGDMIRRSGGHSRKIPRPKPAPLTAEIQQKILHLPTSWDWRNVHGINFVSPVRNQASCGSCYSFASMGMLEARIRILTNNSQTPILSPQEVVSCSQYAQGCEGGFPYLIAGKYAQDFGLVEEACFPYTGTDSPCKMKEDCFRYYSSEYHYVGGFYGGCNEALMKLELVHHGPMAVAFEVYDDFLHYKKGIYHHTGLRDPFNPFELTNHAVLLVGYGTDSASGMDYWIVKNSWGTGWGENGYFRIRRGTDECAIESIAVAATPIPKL
Excerpt: as §2

[2] = THP-1 and other human cell proteomes (Ramos, H1975), 25 μM Phe-Phe-H
[3] = THP-1 membranes, 250 nM Phe-Phe-H

SMILES | IC50 (cathepsin S) | inhibitory activity (IC50) against cathepsin L (cathepsin L) | heavy/light MS1 ratio (R value), CTSS (cathepsin S (CTSS); [2]) | heavy/light MS1 ratio (R value), CTSS (cathepsin S (CTSS); [3]) | heavy/light MS1 ratio (R value), CTSH (cathepsin H (CTSH)) | heavy/light MS1 ratio (R value), CTSL1 catalytic cysteine Cys138 (cathepsin L (CTSL1)) | heavy/light MS1 ratio (R value), CTSZ (cathepsin Z (CTSZ); [2]) | heavy/light MS1 ratio (R value), CTSZ (cathepsin Z (CTSZ); [3]) | heavy/light MS1 ratio (R value), CTSB (cathepsin B (CTSB)) | heavy/light MS1 ratio (R value), additional (non-cathepsin) cysteines [1] | heavy/light MS1 ratio (R value), CTSC (cathepsin C (CTSC); [2]) | heavy/light MS1 ratio (R value), CTSC catalytic cysteine Cys258 (cathepsin C (CTSC); [3])
CCCCCCCC(=O)N[C@@H](CCSC)C(=O)N[C@H](C=O)Cc1ccccc1 [Compound 16, N-octanoyl-Met-Phe-H] (Octanoyl-Met-Phe-aldehyde) | 13 nM | undetectable activity | – | – | – | – | – | – | – | – | – | –
N[C@@H](Cc1ccccc1)C(=O)N[C@H](C=O)Cc1ccccc1 [Phe-Phe-H] (H-Phe-Phe-aldehyde) | – | – | > 5 | < 2.0 | < 2.0 | > 20 | > 5 | < 2.0 | < 2.0 | < 2.0 | > 5 | > 2.78
